In ChEMBL document CHEMBL5360590, “Phyllospongianes A-E, Dinorscalarane Sesterterpenes from the Marine Sponge Phyllospongia foliascens” (J Nat Prod, 2023):
Converted amounts (≈) assume the structure as drawn.

Tests used:
[1] = test system: MCF7; assay: Cytotoxicity against human MCF7 cells assessed as reduction in cell viability by CCK-8 assay; assay type: functional, cell-based
[2] = test system: Bacillus subtilis; assay: Antibacterial activity against Bacillus subtilis assessed as bacterial growth inhibition; assay type: functional
[3] = test system: Enterococcus faecalis; assay: Antibacterial activity against Enterococcus faecalis assessed as bacterial growth inhibition; assay type: functional
[4] = test system: Vibrio parahaemolyticus; assay: Antibacterial activity against Vibrio parahaemolyticus assessed as bacterial growth inhibition; assay type: functional
[5] = test system: HT-29; assay: Cytotoxicity against human HT-29 cells assessed as reduction in cell viability by CCK-8 assay; assay type: functional, cell-based
[6] = Cytotoxicity against human Enzalutamide-resistant LNCaP C4-2 cells assessed as reduction in cell viability by CCK-8 assay; assay type: functional, cell-based
[7] = test system: MDA-MB-231; assay: Cytotoxicity against human MDA-MB-231 cells assessed as reduction in cell viability by CCK-8 assay; assay type: functional, cell-based
[8] = test system: Vibrio vulnificus; assay: Antibacterial activity against Vibrio vulnificus assessed as bacterial growth inhibition; assay type: functional
[9] = test system: Pseudomonas aeruginosa; assay: Antibacterial activity against Pseudomonas aeruginosa assessed as bacterial growth inhibition; assay type: functional
[10] = test system: HepG2; assay: Cytotoxicity against human HepG2 cells assessed as reduction in cell viability by CCK-8 assay; assay type: functional, cell-based
[11] = test system: NCI-H460; assay: Cytotoxicity against human NCI-H460 cells assessed as reduction in cell viability by CCK-8 assay; assay type: functional, cell-based
[12] = test system: Escherichia coli; assay: Antibacterial activity against Escherichia coli assessed as bacterial growth inhibition; assay type: functional

SMILES | IC50 [1] | MIC [2] | MIC [3] | MIC [4] | IC50 [5] | IC50 [6] | IC50 [7] | MIC [8] | MIC [9] | IC50 [10] | IC50 [11] | MIC [12]
CC[C@@]1(C)CCC[C@]2(C)[C@H]3C[C@H](OC(=O)C[C@H](O)C(C)C)[C@]4(C)C(C=O)=CC[C@H]4[C@]3(C)CC[C@@H]12 | 1.1 µM | 8 µg/mL (≈ 16.9 µM) | > 64 µg/mL | > 64 µg/mL | 1.2 µM | 0.7 µM | 13.2 µM | > 64 µg/mL | > 64 µg/mL | 9.6 µM | 2 µM | > 64 µg/mL
CC[C@@]1(C)CCC[C@]2(C)[C@H]3C[C@H](OC(=O)CCC(C)C)[C@]4(C)C(C=O)=CC[C@H]4[C@]3(C)CC[C@@H]12 | 3.5 µM | 1 µg/mL (≈ 2.19 µM) | 4 µg/mL (≈ 8.76 µM) | 2 µg/mL (≈ 4.38 µM) | 4.7 µM | 1.7 µM | 32.3 µM | 2 µg/mL (≈ 4.38 µM) | 4 µg/mL (≈ 8.76 µM) | 19.3 µM | 7.2 µM | 8 µg/mL (≈ 17.5 µM)
CCCCC(=O)O[C@H]1C[C@@H]2[C@@]3(C)CCC[C@](C)(CC)[C@@H]3CC[C@@]2(C)[C@@H]2CC=C(C(=O)O)[C@@]12C | 15.3 µM | 16 µg/mL (≈ 34.9 µM) | 16 µg/mL (≈ 34.9 µM) | 16 µg/mL (≈ 34.9 µM) | 18 µM | 11.2 µM | > 50 µM | 64 µg/mL (≈ 140 µM) | 32 µg/mL (≈ 69.8 µM) | > 50 µM | 13 µM | 32 µg/mL (≈ 69.8 µM)
CC[C@@]1(C)CCC[C@]2(C)[C@H]3C[C@H](OC(=O)CCC(C)C)[C@]4(C)C(C(=O)O)=CC[C@H]4[C@]3(C)CC[C@@H]12 | 12.3 µM | 2 µg/mL (≈ 4.23 µM) | 4 µg/mL (≈ 8.46 µM) | 2 µg/mL (≈ 4.23 µM) | 13.2 µM | 3.7 µM | > 50 µM | 4 µg/mL (≈ 8.46 µM) | 4 µg/mL (≈ 8.46 µM) | 20.1 µM | 11 µM | 8 µg/mL (≈ 16.9 µM)
CCCCC(=O)O[C@H]1C[C@@H]2[C@@]3(C)CCC[C@](C)(CC)[C@@H]3CC[C@@]2(C)[C@@H]2CC=C(C=O)[C@@]12C | 7.3 µM | 2 µg/mL (≈ 4.52 µM) | 4 µg/mL (≈ 9.04 µM) | 4 µg/mL (≈ 9.04 µM) | 8.7 µM | 5.7 µM | > 50 µM | 4 µg/mL (≈ 9.04 µM) | 4 µg/mL (≈ 9.04 µM) | 32.1 µM | 10.2 µM | 8 µg/mL (≈ 18.1 µM)
C[C@H]1COc2c(N3CCN(C)CC3)c(F)cc3c(=O)c(C(=O)O)cn1c23 [LEVOFLOXACIN ANHYDROUS] | – | 0.25 µg/mL (≈ 0.692 µM) | 0.25 µg/mL (≈ 0.692 µM) | 0.5 µg/mL (≈ 1.38 µM) | – | – | – | 0.5 µg/mL (≈ 1.38 µM) | 0.25 µg/mL (≈ 0.692 µM) | – | – | 0.25 µg/mL (≈ 0.692 µM)
Cn1nnc2c(C(N)=O)ncn2c1=O [TEMOZOLOMIDE] | – | – | – | – | – | 18.2 µM | 14.4 µM | – | – | 5.9 µM | – | –
